Publication PMC8253220, “Molecular design, synthesis and in vitro biological evaluation of thienopyrimidine–hydroxamic acids as chimeric kinase HDAC inhibitors: a challenging approach to combat cancer” (Journal of Enzyme Inhibition and Medicinal Chemistry, 2021)
Several values for one entry are separate records, joined by “and”; a condition that tells them apart may be missing. Identical values can stand only once.

How the values were obtained:
Assay in all cases: NCI one-dose screen
Type in all cases: cell-based, human
[1] = system: TK-10; conditions: Renal TK-10, 10 µM single dose
Procedure, shortened: (§1)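 At 10 μM, a single concentration, compounds were evaluated for antiproliferative effect in the NCI 60-line screen, with growth expressed relative to untreated control cells.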

[2] = system: SK-MEL-5; conditions: Melanoma SK-MEL-5, 10 µM single dose
Procedure, shortened: as §1

[3] = system: OVCAR-5; conditions: Ovarian OVCAR-5, 10 µM single dose
Procedure, shortened: as §1

[4] = system: UO-31; conditions: Renal UO-31, 10 µM single dose
Procedure, shortened: (§2)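 Following the standard NCI-60 protocol, compounds were applied once at 10 μM to all 60 cancer lines. Read-out is percent growth versus untreated controls, expressed as inhibition %.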

[5] = system: HCT-116; conditions: Colon HCT-116, 10 µM single dose
Procedure, shortened: as §1

[6] = system: NCI-H226; conditions: NSCLC NCI-H226, 10 µM single dose
Procedure, shortened: as §2

[7] = system: HOP-62; conditions: NSCLC HOP-62, 10 µM single dose
Procedure, shortened: (§3)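 Compounds were tested at a single dose of 10 μM across the full NCI-60 cell line panel. Growth was expressed as percent growth relative to untreated control cells, reported as percent inhibition.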

[8] = system: NCI-H522; conditions: NSCLC NCI-H522, 10 µM single dose
Procedure, shortened: as §2

[9] = system: DU-145; conditions: Prostate DU-145, 10 µM single dose
Procedure, shortened: as §1

[10] = system: LOX IMVI; conditions: Melanoma LOX IMVI, 10 µM single dose
Procedure, shortened: as §1

[11] = system: OVCAR-4; conditions: Ovarian OVCAR-4, 10 µM single dose
Procedure, shortened: as §1

[12] = system: SN12C; conditions: Renal SN12C, 10 µM single dose
Procedure, shortened: as §1

[13] = system: NCI-H322M; conditions: NSCLC NCI-H322M, 10 µM single dose
Procedure, shortened: as §1

[14] = system: MALME-3M; conditions: Melanoma MALME-3M, 10 µM single dose
Procedure, shortened: as §1

[15] = system: SR; conditions: Leukemia SR, 10 µM single dose
Procedure, shortened: as §1

[16] = system: SF-539; conditions: CNS SF-539, 10 µM single dose
Procedure, shortened: (§4)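 Screening used the full NCI panel of 60 cancer cell lines with compounds dosed once at 10 μM; the reported value is percent growth inhibition versus untreated controls.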

[17] = system: SNB-19; conditions: CNS SNB-19, 10 µM single dose
Procedure, shortened: as §3

[18] = system: IGROV1; conditions: Ovarian IGROV1, 10 µM single dose
Procedure, shortened: as §1

[19] = system: A549/ATCC; conditions: NSCLC A549/ATCC, 10 µM single dose
Procedure, shortened: as §1

[20] = system: HT29; conditions: Colon HT29, 10 µM single dose
Procedure, shortened: as §1

[21] = system: HL-60(TB); conditions: Leukemia HL-60(TB), 10 µM single dose
Procedure, shortened: as §1

[22] = system: HS 578T; conditions: Breast HS 578T, 10 µM single dose
Procedure, shortened: as §1

[23] = system: SK-MEL-2; conditions: Melanoma SK-MEL-2, 10 µM single dose
Procedure, shortened: as §3

[24] = system: SW-620; conditions: Colon SW-620, 10 µM single dose
Procedure, shortened: as §3

[25] = system: SK-OV-3; conditions: Ovarian SK-OV-3, 10 µM single dose
Procedure, shortened: as §1

[26] = system: HCC-2998; conditions: Colon HCC-2998, 10 µM single dose
Procedure, shortened: as §1

[27] = system: EKVX; conditions: NSCLC EKVX, 10 µM single dose
Procedure, shortened: as §2

[28] = system: SF-268; conditions: CNS SF-268, 10 µM single dose
Procedure, shortened: as §4

[29] = system: SNB-75; conditions: CNS SNB-75, 10 µM single dose
Procedure, shortened: as §2

[30] = system: MDA-MB-435; conditions: Melanoma MDA-MB-435, 10 µM single dose
Procedure, shortened: as §1

[31] = system: RPMI-8226; conditions: Leukemia RPMI-8226, 10 µM single dose
Procedure, shortened: as §1

[32] = system: 786-0; conditions: Renal 786-0, 10 µM single dose
Procedure, shortened: as §1

[33] = system: CCRF-CEM; conditions: Leukemia CCRF-CEM, 10 µM single dose
Procedure, shortened: as §1

[34] = system: M14; conditions: Melanoma M14, 10 µM single dose
Procedure, shortened: as §1

[35] = system: COLO 205; conditions: Colon COLO 205, 10 µM single dose
Procedure, shortened: as §1

[36] = system: CAKI-1; conditions: Renal CAKI-1, 10 µM single dose
Procedure, shortened: as §1

[37] = system: RXF 393; conditions: Renal RXF 393, 10 µM single dose
Procedure, shortened: as §1

Cc1c(C(=O)NCCC(=O)NO)sc2ncnc(Nc3ccc(F)c(Cl)c3)c12 [Compound 19d, 4–(3-chloro-4-fluorophenylamino)-N-(3-(hydroxyamino)-3-oxopropyl)-5-methylthieno[2,3-d]pyrimidine-6-carboxamide]
Growth Percent [1]: 107.2%
Growth Percent [2]: 101.8% and 101.85%
Growth Percent [3]: 108.4% and 108.42%
Growth Percent [4]: 84.8% and 84.81%
Growth Percent [5]: 107.3%
Growth Percent [6]: 104.0% and 104.06%
Growth Percent [7]: 104.5% and 104.52%
Growth Percent [8]: 95.5% and 95.56%
Growth Percent [9]: 111.2% and 111.26%
Growth Percent [10]: 98.8% and 98.84%
Growth Percent [11]: 108.8% and 108.82%
Growth Percent [12]: 102.7% and 102.77%
Growth Percent [13]: 108.1% and 108.11%
Growth Percent [14]: 112.6% and 112.63%
Growth Percent [15]: 110.82%
Growth Percent [16]: 98.0% and 98.02%
Growth Percent [17]: 98.9% and 98.91%
Growth Percent [18]: 106.2% and 106.28%
Growth Percent [19]: 104.3% and 104.35%
Growth Percent [20]: 104.1%
Growth Percent [21]: 102.8%
Growth Percent [22]: 103.1% and 103.12%
Growth Percent [23]: 100.6% and 100.61%
Growth Percent [24]: 101.5%
Growth Percent [25]: 129.2% and 129.24%
Growth Percent [26]: 104.7% and 104.72%
Growth Percent [27]: 99.4% and 99.43%
Growth Percent [28]: 96.4% and 96.48%
Growth Percent [29]: 97.5%
Growth Percent [30]: 101.8% and 101.82%
Growth Percent [31]: 110.0% and 110.01%
Growth Percent [32]: 105.3% and 105.34%
Growth Percent [33]: 105.2% and 105.23%
Growth Percent [34]: 104.7% and 104.71%
Growth Percent [35]: 117.3% and 117.34%
Growth Percent [36]: 96.6% and 96.62%
Growth Percent [37]: 102.0% and 102.06%

Cc1c(C(=O)NCCCC(=O)NO)sc2ncnc(Nc3ccccc3)c12 [Compound 20b, N-(4-(hydroxyamino)-4-oxobutyl)-5-methyl-4-(phenylamino)thieno[2,3-d]pyrimidine-6-carboxamide]
Growth Percent [1]: 111.2% and 111.26%
Growth Percent [2]: 97.6% and 97.62%
Growth Percent [3]: 100.2% and 100.23%
Growth Percent [4]: 88.2% and 88.29%
Growth Percent [5]: 104.9% and 104.93%
Growth Percent [6]: 97.5% and 97.52%
Growth Percent [7]: 100.8% and 100.81%
Growth Percent [8]: 89.7% and 89.77%
Growth Percent [9]: 111% and 111.21%
Growth Percent [10]: 96.5% and 96.54%
Growth Percent [11]: 105.4% and 105.47%
Growth Percent [12]: 100.3% and 100.34%
Growth Percent [13]: 107.3% and 107.33%
Growth Percent [14]: 111.9% and 111.93%
Growth Percent [15]: 99.2% and 99.22%
Growth Percent [16]: 96.9% and 96.91%
Growth Percent [17]: 97.5% and 97.59%
Growth Percent [18]: 107.3% and 107.35%
Growth Percent [19]: 98.8% and 98.87%
Growth Percent [20]: 102.3% and 102.36%
Growth Percent [21]: 104.1% and 104.16%
Growth Percent [22]: 102.2% and 102.24%
Growth Percent [23]: 102.9%
Growth Percent [24]: 102.0% and 102.07%
Growth Percent [25]: 125.1% and 125.12%
Growth Percent [26]: 104.7% and 104.78%
Growth Percent [27]: 89.6% and 89.65%
Growth Percent [28]: 97.1% and 97.16%
Growth Percent [29]: 95.6%
Growth Percent [30]: 103.3% and 103.32%
Growth Percent [31]: 102.2%
Growth Percent [32]: 113.5% and 113.55%
Growth Percent [33]: 102.7% and 102.73%
Growth Percent [34]: 112.3% and 112.35%
Growth Percent [35]: 106.5% and 106.57%
Growth Percent [36]: 96.9% and 96.93%
Growth Percent [37]: 98.6% and 98.66%
